Consider 81 compounds from the METLIN SMRT retention time set (Domingo-Almenara et al. 2019).

The data set in a line: gradient 5% acetonitrile 3 min, to 50% in 2 min, to 85% in 15 min, held 3 min, 100 µL/min. The settings on record: column: Zorbax Extend-C18 2.1 x 50 mm; eluents: water / acetonitrile, 0.1% formic acid. The procedure, abridged: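 The system's dead and dwell volumes were 40 μL and 900 μL, with a Zorbax Extend-C18 column (2.1 × 50 mm, 1.8 μm) run at 100 μL/min in water and acetonitrile containing 0.1% formic acid each. Pure standards were analyzed in mixtures of ~100 molecules by HPLC–quadrupole time-of-flight mass spectrometry in positive and negative ionization mode. Retention time was assigned from computationally picked, manually inspected adduct peaks.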
For `COc1ccc(CN2CCN(C(=O)CCc3c(C)noc3C)CC2)cn1`, the RP-LC retention time amounted to 646 s. With `COc1ccc(-n2ccnc2SCC(=O)NCc2ccc3c(c2)OCO3)c(OC)c1` the figure was 630 s; with `CC(=O)c1ccc(NC(=O)Cn2c(C)cc(-c3nnc(C4CCC4)o3)c2C)cc1`, 813 s; with `Cc1nc2c(sc3cccc(F)c32)c(=O)n1CC(=O)Nc1ccccc1C(F)(F)F`, 841 s. With `Cc1ccc(CCC(=O)Nc2ccc(SC(F)F)cc2)o1` the figure was 919 s. For `CCS(=O)(=O)N(C1CC1)C1CCOC2(CCN(C(=O)c3sc(C)nc3C)CC2)C1` (stereo unspecified) the value was 714 s.

`CCC(CC)NC(=O)C1CCN(c2cn[nH]c(=O)c2)C1` (stereo unspecified) gave an RP-LC retention time of 612 s. For `CS(=O)(=O)N1CCc2ccc(C(=O)N3CCCCC3)cc21` the value was 717 s; for `CCCn1nc(CNC(=O)c2cnccn2)c2ccccc21`, 765 s. With `CCOCCCNC(=O)C1Cn2cccc2C(=O)N1C` (stereo unspecified) the figure was 597 s. With `CC1CCN(c2cncnc2-n2cc(NC(=O)NC3CCCCC3)cn2)CC1` the figure was 744 s; with `C=CCN1C(=O)COc2ccc(-c3csc(NC(=O)c4cccc(C)c4)n3)cc21`, 1060 s; with `CC(C)NC(=O)NCCN1CCN(c2ccccc2)CC1`, 569 s. Compound `CCOC(=O)c1c(C)[nH]c(C(=O)N2CCCC(C(=O)NCCc3c[nH]c4ccccc34)C2)c1C` (stereo unspecified) had an RP-LC retention time of 808 s. With `Cn1c(=O)oc2cc(-c3noc(-c4cccc5[nH]ccc45)n3)ccc21` the figure was 932 s. In turn, `COc1ccccc1Nc1c(-c2ccccc2)nc2cnccn12` showed an RP-LC retention time of 875 s. As to `CNC(=O)c1cc(Nc2ccc3nc(Nc4ccc(Cl)c(C(F)(F)F)c4)[nH]c3c2)ccn1`, the RP-LC retention time amounted to 631 s. For `O=C(Nc1cccc(F)c1)N1CCCC1c1nc(-c2ccccc2)no1` (stereo unspecified) the value was 964 s. With `CCc1sc(NC(=O)Cc2csc(C)n2)nc1-c1ccc(Br)cc1` the figure was 1080 s; with `Cc1cc2nn(CC(=O)Nc3ccc(F)cc3F)c(=O)n2c(Nc2ccc(C)c(F)c2)n1`, 1080 s.

In turn, `CSc1ccc(CNS(=O)(=O)c2cc3c(s2)CCN(C(=O)C2CC2)C3)cc1` showed an RP-LC retention time of 872 s.

For `Cc1cc(Cl)ccc1NC(=O)C1CCCN(S(=O)(=O)c2c[nH]c(C(=O)N3CCCC3)c2)C1` (stereo unspecified), the RP-LC retention time turned out to be 852 s.

`O=C(Cc1cccs1)N1CCC2(CC1)N=C(c1ccc(Cl)cc1)NO2` displayed an RP-LC retention time of 859 s.

`COc1ccc(C2CC(=O)c3c([nH]c(C(=O)OC4CCCCC4)c3C)C2)cc1OC` (stereo unspecified) registered an RP-LC retention time of 1070 s. `CC1=NS(=O)(=O)N(C)C=C1C(=O)OCCOc1ccccc1` showed an RP-LC retention time of 921 s. `Cc1ccc(CNC(=O)C2(C)Oc3cccnc3NC2=O)cc1` (stereo unspecified) displayed an RP-LC retention time of 702 s. For `CCOc1ccccc1NC(=O)Cn1nc2n(c1=O)CCCCC2` the value was 766 s; for `Cc1ccc(Cn2c(N3CCC(C(=O)NCC4CC4)CC3)nc3ccsc3c2=O)cc1`, 879 s; for `COC(=O)CSC1=C(C#N)C(c2ccsc2)CC(=O)N1` (stereo unspecified), 707 s. With `CCN1C(=O)C(CC(=O)NC(C)c2ccccc2)Sc2ncccc21` (stereo unspecified) the figure was 751 s; with `O=S(=O)(c1ccc(Cl)c(-c2nnc(-c3ccccc3)o2)c1)N1CCOCC1`, 946 s; with `O=C(Nc1ccc(OC(F)(F)F)cc1)C1CCN(C(=O)C2Sc3ccccc3NC2=O)CC1` (stereo unspecified), 893 s. `CSc1nsc(SCC(=O)Nc2nc(-c3ccccc3)cs2)n1` yielded an RP-LC retention time of 1070 s. For `CCc1ccc(CNC(=O)C2CCN(C(=O)c3ncn4c3COC(c3ccc(C)cc3)C4)CC2)cc1` (stereo unspecified) the value was 853 s; for `Cc1ccc(Cl)cc1NC(=O)N(C)CC1CCOCC1`, 761 s. With `Cc1cc(C)cc(N2C(=O)N(CC(=O)N3CCC(C)CC3)C3CS(=O)(=O)CC32)c1` (stereo unspecified) the figure was 816 s. `COc1ccc(Cn2nnc(C(=O)NCc3ccco3)c2-n2cccc2)cc1` displayed an RP-LC retention time of 925 s. Turning to `Cn1cc(CN2CCC(C(=O)NCCc3ccco3)CC2)c2cc(Cl)ccc21`, the RP-LC retention time was determined as 679 s. With `CNC(=O)N1c2ccccc2CC1c1nc(C(C)C)no1` (stereo unspecified) the figure was 799 s; with `COc1ccc(OC)c(-c2ccc(=O)n(CC(=O)Nc3ccc(-n4cnnn4)cc3)n2)c1`, 689 s. With `O=C(N[C@H]1C[C@@H]2C[C@H]1N(C(=O)c1ccccc1C(F)(F)F)C2)c1ccccc1` the figure was 778 s; with `Cc1ccc(-c2[nH]ncc2CN2CCn3c(nn(C)c3=O)C2)cc1C`, 638 s.

`COc1ccc(CN2C[C@@H]3C(=O)N(CCCN4CCCC4=O)C(=O)[C@@H]3C2)cc1`: the RP-LC retention time came to 589 s. With `CCCC(=O)N1CCC2(C1)C(=O)Nc1ccc(OC)cc12` (stereo unspecified) the figure was 652 s. With `CCCNC(=O)N1CCCC1c1nc(-c2ccc(OC)cc2)no1` (stereo unspecified) the figure was 758 s. For `O=C(NCC1CN(CC2CC2)CC12CCCCC2)Nc1cc(F)cc(F)c1` (stereo unspecified), the RP-LC retention time came to 760 s.

`O=C(Cn1nc(-c2ccco2)ccc1=O)NCCOc1cc(N2CCCCC2)ncn1` yielded an RP-LC retention time of 588 s. For `Cc1ccc(Nc2ncccc2S(N)(=O)=O)cc1` the value was 795 s. For `CC(CCc1ccccc1)NC(=O)C1CCN(S(=O)(=O)c2ccc3c(ccn3C)c2)CC1` (stereo unspecified), the RP-LC retention time was found to be 882 s. With `CCOCN(C(=O)Cn1c(CC)nc2ccccc21)c1c(C)cccc1CC` the figure was 780 s; with `CCc1ccccc1S(=O)(=O)N1CCc2c(c(-c3nc(C4CC4)no3)nn2C)C1`, 1010 s; with `COc1ccccc1CCC(=O)Nc1ccc2c(c1)Sc1ncccc1C(=O)N2C(C)C`, 922 s.

As for `COc1cccc2c(C)nc(NC3=NCN(Cc4ccc5c(c4)OCO5)CN3)nc12`, the RP-LC retention time came to 700 s. For `COc1ccc(OC)c(NC(=O)C2CCCN2S(=O)(=O)c2cc3c(cc2Cl)NC(=O)CO3)c1` (stereo unspecified) the value was 829 s. For `C=CCn1c(=O)c2ccccc2n(Cc2nc(-c3ccccc3C)no2)c1=O`, the RP-LC retention time was 1080 s. For `CCc1noc2nc(C)n(CC(=O)NCc3ccccc3OC)c(=O)c12` the value was 832 s. For `CNC(=O)c1cc(N(C)C)nc2c(Cl)cccc12` the value was 666 s. With `CCN1c2ccc(C)cc2C(=O)NC12CCN(C(=O)c1cccc(C)c1)CC2` the figure was 849 s.

Compound `CC(C)CNC(=O)c1cn(-c2ncccc2-c2nc(C(C)(C)C)no2)cn1` displayed an RP-LC retention time of 872 s. With `CCC1(O)CCOC2(CCN(C(=O)CC3CCCC3)CC2)C1` (stereo unspecified) the figure was 748 s. `Cc1ccc(NC(=O)Cc2csc3nc(-c4ccc(C)c(C)c4)cn23)cc1` gave an RP-LC retention time of 884 s. The compound `Cc1cc(C)c(S(=O)(=O)N2CCCC2c2nc(-c3ccccc3C)no2)cc1C` (stereo unspecified) displayed an RP-LC retention time of 1300 s. For `CC(C)(C)C1CCC(OCC(O)CN2CCN(CCO)CC2)CC1` (stereo unspecified) the value was 581 s; for `COc1ccc(CNC(=O)C2=C3CCCN3c3ccccc3S2(=O)=O)cc1`, 795 s. For `COc1ccc(SCCCC(=O)NCc2ccccc2)cc1` the value was 849 s. For `CN(CCNC(=O)Cn1c2ccccc2c2cnn(C)c(=O)c21)Cc1ccccc1` the value was 640 s; for `N#Cc1nc(-c2cccs2)oc1N1CCN(C(=O)c2ccco2)CC1`, 789 s. `CCNC(=O)N1CC=C(C(=O)Nc2cccc(F)c2)CC1` came in with an RP-LC retention time of 673 s. With `Cn1cnc2c(NCc3ccccc3)nc(NCCO)nc21` the figure was 657 s; with `Cc1nc(-c2cnccn2)nc2c1CCC(=O)N2Cc1cccnc1`, 556 s; with `Fc1ccc(-c2nnc(Cc3nc(-c4ccc(C(F)(F)F)cc4)no3)o2)cc1`, 1100 s. `CCN1CCN(C2=NCCN2C(=O)c2ccccc2Br)CC1` yielded an RP-LC retention time of 898 s. As for `CC(C)CN1C(=O)c2ccccc2C(C(=O)NCc2cccnc2)C12CCCCC2` (stereo unspecified), the RP-LC retention time came out at 659 s. For `O=C(NCc1ccccn1)C(=O)Nc1ccc(F)c(Cl)c1` the value was 632 s; for `Cc1cccc(NC(=O)Cn2c(-c3cnccn3)nc(C)c(C)c2=O)c1C`, 743 s.

In the case of `COc1ccc(Nc2c(-c3ccc(N(C)C)cc3)nc3cnccn23)cc1`, the RP-LC retention time turned out to be 740 s.

As to `O=S(=O)(c1ccc(-c2noc(-c3ccc(Cl)cc3)n2)cc1)N1CCOCC1`, the RP-LC retention time was 1160 s. For `CCN(C(=O)Cn1c(N2CCCCC2)nc(C)cc1=O)c1ccccc1` the value was 661 s; for `O=C(NC1(N2CCOCC2)CC1)c1ccc(Cl)cc1`, 667 s; for `Cc1ccc(-c2nnc(-c3nn(C)c4c3CN(S(=O)(=O)c3ccc(Cl)s3)CC4)o2)cc1`, 1060 s.

As to `COc1ccc2[nH]cc(CCN3CC(C(=O)Nc4nnc(C(C)(C)C)s4)CC3=O)c2c1` (stereo unspecified), the RP-LC retention time stood at 744 s.
